Experimental data published in patent EP1158297A1, “METHOD FOR SCREENING COMPOUND HAVING AFFINITY FOR VITAMIN D RECEPTOR” (CHUGAI SEIYAKU KABUSHIKI KAISHA, priority 1999, dated 2000).
Read-outs that look alike come from different tables or passages of the source.

Assays:
VDRE = experiment: Reporter gene (CAT) assay using reporter gene vector having VDRE; type: cell-based, African green monkey; conditions: for VDRE-mediated transcription promoting activity: relative value with the EC50 value of 1α,25-dihydroxyvitamin D3 as 100%, COS-1 cells with rat vitamin D receptor expression vector, CAT ELISA, lower = more potent
Source text: The reporter gene vector having VDRE used was a product produced by integrating VDRE ([…]) of a mouse osteopontin gene into a cassette vector (pGCAT; Kato S. et al., Cell (1992)68, 731-742) containing a promoter region (-109/+10) of rabbit β-globin and CAT (chloramphenicol acetyltransferase). As an expression vector for β-galactosidase used for correction of transfection efficiency, pCH110 (Pharmacia) was used. As a carrier vector, BSM (BluescribeM13+: […]) was used.
The rat vitamin D receptor expression vector used was a product obtained by integrating cDNA of a rat vitamin D receptor into pSG5 ([…]).
COS-1 cells were cultured in a DMEM medium containing 5% FBS and 10 nM insulin, and cultures were subcultured at intervals of 3 or 4 days at a density of 1,500 to 3,000 cells/cm^2. The conditions for culture were 37°C and 5% CO2. For cultivation of COS-1 cells during reporter gene assay, a phenol red-free DMEM medium containing 5% DCC-FBS (charcoal-treated FBS) and 10 nM insulin was used. COS-1 cells were seeded into a 6-well plate at a density of 5 to 8 x 10^4 cells/1.75 mL/well. […]
After overnight culture, each well was washed with 1 mL/well of a phenol red-free DMEM medium. […] Then, the amount of CAT expressed was measured using a CAT ELISA kit (Boehringer Mannheim).
The cell lysate (10 µL), 175 µL of Buffer Z (60 mM Na2HPO4, 40 mM NaH2PO4, 10 mM KCl, 1 mM MgSO4) and 35 µL of 4 mg/mL ONPG (o-nitrophenyl-β-D-galactopyranoside; SIGMA) were mixed in a 96-well plate (Nunc-Immuno plate Maxi Sorp Surface) and the system was incubated for 1 hour at 37°C. Then, 100 µL of 1M Na2CO3 was added to terminate the reaction and A415 was measured with a plate reader. Based on the measured values, the number of units of the cell lysate was calculated from the following equation and the cell lysate in an amount corresponding to 15 units was used in CAT ELISA measurement. […]
Based on the measured values of CAT ELISA, the EC50 value of each derivative was calculated to evaluate the VDRE-mediated action.

osteoporosis model rats [1] = type: in vivo; conditions: OVX rats, third lumbar vertebra
Method: 7- to 9-week-old W-I female rats (Imamichi Institute for Animal Reproduction) were subject to ovariectomy. […] After the last dose, 24-hour urine was sampled and the blood was taken under ether anesthesia. After the animal was euthanized, the lumbar vertebrae were removed.
The lumbar bone mineral density was measured at the third lumbar vertebra site using a dual X-ray bone mineral content measuring device (DCS-600, ALOKA). The blood and urinary calcium concentrations and the urinary creatinine concentration were measured with an automatic analyzer (Model 7170, Hitachi).
Statistical processing was carried out using Statistic Analysis System (SAS) software. A comparison between a sham operation (sham) group and an ovariectomy (OVX) group was made by an unpaired t-test. A comparison between the OVX group and the drug treatment group, or a comparison between the sham group and the drug treatment group was made by Dunnett's multiple test. A P-value less then 5% was considered as a significant difference.

osteoporosis model rats [2] = experiment: Bone mass decrease in osteoporosis model rats, oral treatment (Example 3); type: in vivo
Method: 8-week-old W-I female rats (Imamichi Institute for Animal Reproduction) were subjected to overiectomy. From the following day onward, 1α-hydroxyvitamin D3 was orally administered 5 times weekly in a daily dose of 0.1 µg/kg, or Compound No. 22 was orally administered daily for 5 weeks in a daily dose of 3 µg/kg given as a single dose or two divided doses. After the last dose, 24-hour urine was sampled and a blood sample was taken under ether anesthesia. After the animal was euthanized, the lumbar vertebrae were removed. The lumbar bone mineral density was measured at the third lumbar vertebra site using a dual X-ray bone mineral content measuring device (DCS-600EX, ALOKA). The blood and urinary calcium concentrations and the urinary creatinine concentration were measured with an automatic analyzer (Model 7170, Hitachi).
Statistical processing was carried out using basic software for statistical analysis (SAS). A comparison between the sham group and the OVX group, a comparison between the OVX group and the 1α-hydroxyvitamin D3 treatment group, or a comparison between the sham group and the 1α-hydroxyvitamin D3 treatment group was made by an unpaired t-test, with the p value less than 5% representing a significant difference. A comparison between the OVX group and the Compound No. 22 group, or a comparison between the sham group and the Compound No. 22 group was made by Dunnett's multiple test, with the p value less than 5% showing a significant difference.

osteoporosis model rats [3] = experiment: Bone strength decrease and bone resorption in osteoporosis model rats, oral treatment (Example 4); type: in vivo
Method: 13-month-old W-I female rats (Imamichi Institute for Animal Reproduction) were subject to overiectomy. From the following day onward, Compound No. 22 was administered p.o. daily for 3 months in a daily dose of 1.5 to 6 µg/kg given as two divided doses. After the last dose, 24-hour urine was sampled and a blood sample was taken under ether anesthesia. After the animal was euthanized, the lumbar vertebrae were removed.
The lumbar bone mineral density was measured at the second to fourth lumbar vertebra site using a dual X-ray bone mineral content measuring device (DCS-600EX, ALOKA). The bone strength of the fifth lumbar vertebra was measured with Autograph AG-2000E (Shimadzu Corp.). The blood calcium concentration and the urinary creatinine concentration were measured with an automatic analyzer (Model 7170, Hitachi). The urinary deoxypyridinoline was measured with Osteolinks DPD.
Statistical Analysis was carried out using Statistic Analysis System (SAS) software. A comparison between the sham group and the OVX group was made by an unpaired t-test. A comparison between the OVX group and the Compound No. 22 treatment group, or a comparison between the sham group and the Compound No. 22 treatment group was made by Dunnett's multiple test, with the p value less than 5% showing a significant difference.

AP-1 complex = experiment: Reporter gene (luciferase) assay using reporter gene vector having AP-1 binding sequence; type: cell-based, human; conditions: IC37.5 value expressed as percentage of the value of 1α,25-dihydroxyvitamin D3 (100%); Jurkat cells with rat vitamin D receptor expression vector, PMA and ionomycin stimulation; lower = more potent
Source text: (§1) A basic vector was constructed by inserting a promoter region (-72/+47) of a human IL-2 gene into a cassette vector of luciferase (pXP2; described in S.K. Nordeen, Biotechniques, Vol. 6, pp. 454-456, (1988)). For a reporter gene vector having an AP-1 binding sequence, five AP-1 binding sequences ([…]) of a human collagenase (MMP-1) gene were inserted tandem into the basic vector. For a reporter gene vector having an NF-κB binding sequence, four NF-κB binding sequences ([…]) of a human immunoglobulin light chain κ gene were inserted tandem into the basic vector. The resulting products were used as the respective reporter gene vectors.
(§2) The rat vitamin D receptor expression vector used was a product obtained by inserting cDNA of a rat vitamin D receptor (described in James K. Burmester et al., Proc. Natl. Acad. Sci. USA, Vol. 85, pp. 9499-9502, […]) into the pSG5 ([…]).
(§3) Jurkat cells were cultured in RPMI-1640 (GIBCO BRL) containing 10% FBS and antibiotics. The culture was started at a density of 5 x 10^4 cells/mL and the cells were subcultured at intervals of 3 or 4 days to a density of 5 x 10^4 cells/mL. The conditions for culture were 37°C and 5% CO2. […] Both of the solutions were mixed and then allowed to stand for 30 minute at room temperature.

NF-κB family = experiment: Reporter gene (luciferase) assay using reporter gene vector having NF-κB binding sequence; type: cell-based, human; conditions: IC37.5 value expressed as percentage of the value of 1α,25-dihydroxyvitamin D3 (100%); Jurkat cells with rat vitamin D receptor expression vector, PMA and ionomycin stimulation; lower = more potent
Source text: as §1, §2, §3

vitamin D receptor = molecular target: T1, vitamin D receptor (Homo sapiens, UniProt P11473); experiment: Affinity for vitamin D receptor; type: binding; conditions: relative to that of 1α,25-dihydroxyvitamin D3
T1 sequence (P11473 1-427): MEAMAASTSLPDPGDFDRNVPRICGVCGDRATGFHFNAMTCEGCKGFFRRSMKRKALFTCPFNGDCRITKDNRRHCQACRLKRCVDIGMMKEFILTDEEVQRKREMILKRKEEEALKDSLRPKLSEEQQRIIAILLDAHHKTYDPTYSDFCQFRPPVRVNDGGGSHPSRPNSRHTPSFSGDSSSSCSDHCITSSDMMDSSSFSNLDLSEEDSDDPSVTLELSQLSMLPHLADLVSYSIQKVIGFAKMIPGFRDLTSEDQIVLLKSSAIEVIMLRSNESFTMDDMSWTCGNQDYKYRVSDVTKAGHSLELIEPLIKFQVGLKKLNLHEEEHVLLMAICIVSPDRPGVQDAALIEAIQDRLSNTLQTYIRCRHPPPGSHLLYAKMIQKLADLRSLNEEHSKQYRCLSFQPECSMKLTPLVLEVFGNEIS

[4] = OVX rats, 0.1 µg/kg orally 5 times weekly, in comparison with the sham group and the OVX group

blood Ca level (osteoporosis model rats [2]; [4]) | urinary Ca excretion (osteoporosis model rats [2]; [4]) | serum Ca concentration (osteoporosis model rats [3]; OVX rats, orally 0.75, 1.5 or 3 µg/kg twice daily for 3 months) | Inhibitory activity against AP-1 complex (AP-1 complex) | Inhibitory activity against NF-κB family (NF-κB family) | affinity for a vitamin D receptor (vitamin D receptor) | SMILES | VDRE-mediated transcription promoting activity (VDRE) | decrease in bone mineral density (osteoporosis model rats [1]; 0.04 µg/kg subcutaneously 5 times weekly for 6 weeks) | decrease in bone mineral density by OVX (osteoporosis model rats [2]; 0.1 µg/kg orally 5 times weekly, third lumbar vertebra) | urinary Dpyr excretion increased by OVX (osteoporosis model rats [3]; oral treatment twice daily for 3 months, urinary deoxypyridinoline, bone resorption marker) | decrease in the bone strength by OVX (osteoporosis model rats [3]; orally 0.75, 1.5 or 3 µg/kg twice daily for 3 months, fifth lumbar vertebra) | decrease in the bone mineral density by OVX (osteoporosis model rats [3]; orally 0.75, 1.5 or 3 µg/kg twice daily for 3 months, second to fourth lumbar vertebra) | VDRE-mediated transcription promoting activity relative to that of 1α,25-dihydroxyvitamin D3 (VDRE; fraction of the activity of 1α,25-dihydroxyvitamin D3) | effect of suppressing the decrease in bone mineral density (osteoporosis model rats [2]; OVX rats, orally 3 µg/kg once daily or 1.5 µg/kg twice daily for 5 weeks, third lumbar vertebra) | decrease in bone mineral density (osteoporosis model rats [1]; 0.1 µg/kg subcutaneously 5 times weekly for 6 weeks) | decrease in bone mineral density (osteoporosis model rats [1]; doses of 0.01 to 0.1 µg/kg subcutaneously 5 times weekly for 6 weeks)
– | – | – | – | – | – | C=C1/C(=C\C=C2/CCC[C@]3(C)[C@@H]([C@H](C)CCCC(C)(C)O)CC[C@@H]23)C[C@@H](O)C[C@@H]1O [1α,25-dihydroxyvitamin D3, reference compound] | 100.00% | significantly suppressed | – | – | – | – | – | – | – | –
significantly increased | significantly increased | – | – | – | – | C=C1/C(=C\C=C2/CCC[C@]3(C)[C@@H]([C@H](C)CCCC(C)C)CC[C@@H]23)C[C@@H](O)C[C@@H]1O [1α-hydroxyvitamin D3] | – | – | significantly suppressed | – | – | – | – | – | – | –
– | – | without increases | 3.74% | 5.19% | 0.8 times | C=C1/C(=C\C=C2/CCC[C@]3(C)C([C@@H](C)SCC(O)(CC)CC)=CC[C@@H]23)C[C@@H](O)C[C@@H]1O [Compound 22, 1α,3β-dihydroxy-20(R)-(2-ethyl-2-hydroxybutylthio)-9,10-secopregna-5,7,10(19),16-tetraene] | 1032.20% | – | – | significantly decreased | significantly suppressed | significantly suppressed | about 1/10 | comparable to or higher than that of 1α-hydroxyvitamin D3 | significant suppressing effect | dose-dependent effect of suppressing the decrease in bone mineral density
